In patent publication US11141419B1, “Use of iminosugars as prophylactic and therapy against COVID-19 / SARS-CoV-2” (priority 2020, dated 2021):
Where two headings read alike, the source gives them in different places.

How the values were obtained:
[1] = system: Lentiviruses expressing SARS-CoV-2 spike glycoprotein (Wuhan isolate, P.1, B.1.1.7, B.1.351); assay type: cell-based; conditions: 100 μM iminosugar, 24 hrs pre-treatment, luciferase after 48 hrs
SARS-CoV-2 virus = assay type: cell-based; conditions: Vero E6, MOI 0.01, 100 μM iminosugar, 24 hrs, supernatant
SARS-CoV-2/WA/1 virus = test: Plaque reduction assay in Vero E6 cells; assay type: cell-based; conditions: Vero E6 cells pre-treated and overlaid with iminosugar, 40 PFU, 48 hrs, duplicate wells, read-out: IC50 against SARS-CoV-2 (plaque formation)
COVID-19 = conditions: repurposed drug regimens; cited from earlier work
Huh7.0 human cells = test: Cell viability (MTS assay) of uninfected Huh7.0 cells; conditions: various concentrations, three days
SARS-CoV-2 = assay type: cell-based; conditions: Huh7.0, lower MOI (0.1), 250 μM, three days
[2] = Severe acute respiratory syndrome coronavirus 2, Vero C1008

| Compound | pseudotyped SARS-CoV-2 viral entry into human 293t-hACE2 cells [1] | SARS-CoV-2 viral RNA production / viral genome copy number (N1 gene PCR) (SARS-CoV-2 virus) | IC50 (SARS-CoV-2/WA/1 virus; [2]) [µM] | effect on hospitalized COVID-19 patients (COVID-19) | further results |
| --- | --- | --- | --- | --- | --- |
| O[C@H]1[C@H](O)[C@@H](O)CN2CC[C@H](O)[C@H]12 [Castanospermine, castanospermine] | significant decrease | significantly reduced | – | – | IC50 (SARS-CoV-2/WA/1 virus): 91 µM |
| C[C@H]1O[C@H](O[C@H]2[C@H](O)[C@@H](O)[C@@H](O[C@H]3[C@H](O)[C@@H](O)C(O)O[C@@H]3CO)O[C@@H]2CO)[C@H](O)[C@@H](O)[C@@H]1N[C@H]1C=C(CO)[C@@H](O)[C@H](O)[C@H]1O (some centres unmarked) [Acarbose, acarbose] | – | – | 105 | – | – |
| CCN(CCO)CCCC(C)Nc1ccnc2cc(Cl)ccc12 (centres unmarked) [hydroxychloroquine] | – | – | – | little or no effect | – |
| Cc1cccc(C)c1OCC(=O)N[C@@H](Cc1ccccc1)[C@@H](O)C[C@H](Cc1ccccc1)NC(=O)[C@H](C(C)C)N1CCCNC1=O [lopinavir] | – | – | – | little or no effect | – |
| OCCN1C[C@H](O)[C@@H](O)[C@H](O)[C@H]1CO [Miglitol, miglitol] | significant decrease | significantly reduced | 135 | – | toxicity to human cells (Huh7.0 human cells): without toxicity; cell survival (SARS-CoV-2): completely restored |
